Source: patent publication US10611765B2, “Pyrrolopyrimidine derivatives as Mps1/TTK kinase inhibitors” (Ohio State Innovation Foundation, priority 2014, dated 2020)

Assays:
BT-549 = experiment: MTS anti-proliferative assay, BT-549; format: cell-based; details: Homo sapiens, 168 h, BT-549, TNBC, basal B, treatment for 7 days
Protocol: (§1) The anti-proliferative effects and IC50 values of the compounds in the BC cell line panel were determined by MTS assay.
(§2) The cells, except Sk-Br-3, AU565 and BT-474 were maintained in a mixture of Dulbecco's modified Eagle's medium and Ham's F12 medium (1:1) (DMEM/F12) without phenol red supplemented with 5% fetal bovine serum (FBS) and 1× antibiotic-antimycotic (100 U/mL penicillin G sodium, 100 μg/mL streptomycin sulfate and 0.25 μg/mL amphotericin B) and were plated separately in flasks in a humidified incubator (5% CO2: 95% air, 37° C.). The media used for Sk-Br-3, AU565 and BT-474 cell lines was described in (1) Brueggemeier et al., J. Steroid Biochem. Mol. Biol., 2005; 95:129-136; and (2) Diaz-Cruz et al., J. Clin. Endocrinol. Metab., 2005; 90:2563-2570. The media were changed every 2-days. When the cells grew to about 80% confluence, cells were washed twice with calcium- and magnesium-free phosphate-buffered saline (PBS, pH 7.4), and then trypsinized with 0.05% trypsin-5.3 mm EDTA. The trypsinization was stopped by addition of culture medium with 5% FBS. After centrifugation, the dissociated cells were resuspended in the same medium and subcultured into 75-cm^2 culture flasks at a ratio of 1:5 flasks.
(§3) The BC cells were seeded at the density of 1,000 cells per well (100 μL) into 96 well plate in DMEM/F-12 (1:1), supplemented with 5% (v/v) FCS and incubated overnight at 37° C. Test compounds are solubilized in dimethyl sulfoxide (DMSO), diluted in cell culture medium to a range of final assay concentrations of 1 nM to 10 μM, added to cells and incubated for 7 days at 37° C. The medium including the test compound are refreshed at days 3 and 5. The MTS assay are carried out by using the CellTiter 96® AQueous One Solution Cell Proliferation Assay kit following the manufacturer's instruction.

[1] = tested on: panel of breast cancer cell lines; experiment: Anti-proliferative assays, panel of BC cell lines (overall statements); format: cell-based; details: for potency as compared to Mps1-IN-1: in some or all of the cell based assays in the panel
Protocol: This example describes the development of novel small molecule Mps1/TTK inhibitors as targeted therapies for TNBC and other aggressive BC using drug discovery technologies. Using computational modeling, medicinal chemistry, biochemistry and cell culture assays, the inventors have identified novel small molecules as potential Mps1/TTK inhibitors. The compounds were evaluated in anti-proliferative assays of a panel of 15 BC cell lines and further examined for their ability to inhibit a variety of Mps1-dependent biological functions.
as §1, §2, §3

MDA-MB-436 = experiment: MTS anti-proliferative assay, MDA-MB-436; format: cell-based; details: Homo sapiens, 168 h, MDA-MB-436, TNBC, basal B, treatment for 7 days
Protocol: as §1
(§4) The media were changed every 2-days. When the cells grew to about 80% confluence, cells were washed twice with calcium- and magnesium-free phosphate-buffered saline (PBS, pH 7.4), and then trypsinized with 0.05% trypsin-5.3 mm EDTA. The trypsinization was stopped by addition of culture medium with 5% FBS.
as §3

MDA-MB-453 = experiment: MTS anti-proliferative assay, MDA-MB-453; format: cell-based; details: Homo sapiens, 168 h, MDA-MB-453, luminal A, treatment for 7 days
Protocol: as §1, §4, §3

MDA-MB-468 = experiment: MTS anti-proliferative assay, MDA-MB-468; format: cell-based; details: Homo sapiens, 168 h, MDA-MB-468, TNBC, basal B, treatment for 7 days
Protocol: as §1, §2, §3

Cal-51 cells = experiment: Centriole assembly / centrosome amplification assay, Cal-51; format: cell-based
Protocol: For these cell biology assays, cells were plated onto poly-L-lysine coated coverslips in 24 well dishes using the medium and growth conditions described above, but using medium containing phenol red. At 24 hours after plating, compounds (or the equivalent amount of DMSO) were added to individual wells at various concentrations. Cells were incubated for 24 hours at 37° C. BrdU was added during the last 4 hours of the incubation, after which cells were fixed in pre-chilled methanol at −20 OC for 10 minutes, stained with centrosome markers, then treated with acid to denature chromosomal DNA prior to staining for BrdU. To assess centriole biogenesis, centriole number was determined for triplicate samples in cells that had entered S-phase as judged by incorporation of BrdU. Primary antibodies used were mouse anti-γTubulin (pericentriolar material) and rabbit anti-Centrin 2 (centrioles). Secondary antibodies used were Alexa594-conjugated donkey anti-mouse and Alexa488-conjugated donkey anti-rabbit.
For centriole assembly assays, Cal-51 and MDA-MB-468 cells were treated with candidate compounds prior to a short pulse of BrdU. Because the centriole pair is replicated at the G1/S transition, compounds that block centrosome assembly will lead to an increased number of BrdU-positive cells with two centrioles. In addition, like many breast cancer cells Cal-51 and MDA-MB-468 are capable of centrosome amplification, and compounds that block this centrosome amplification should reduce the number of BrdU-positive cells with more than four centrioles.

Hs578T = experiment: MTS anti-proliferative assay, Hs578T; format: cell-based; details: Homo sapiens, Hs-578T, 168 h, TNBC, basal B, treatment for 7 days
Protocol: as §1, §2, §3

twenty common kinases = experiment: Kinase profiling assays for twenty common kinases; format: biochemical
Protocol: (§5) Briefly, the inhibition potency to Mps1 kinase activity was determined by measurement of radioactive phosphotransfer to the specific substrate, Cetn2. The autophosphorylation of Mps1 was also measured using the same method without adding Cetn2 in the kinase assay reaction mixture. […] Mps1 activity was measured using 0.25 ng of recombinant GST-Mps1 protein in 50 mM TrisCl pH 7.5, 0.5 mM DTT, 10 mM MgCl2, 300 μM recombinant Cetn2 and 3 μM ^32P-γ-ATP. […] ATP was added to initiate the kinase assay, incubated at 30° C. for 30 min and five-fold volume of […] was added to quench the reaction. The whole reaction was immobilized on Immobilon-P^SQ PVDF membrane (Millipore) using a dot blotter connected to vacuum line. Each well was washed three times with 300 μL of PBS. The membrane was further washed by soaking in PBS, dried, and exposed overnight to a Phosphor Screen. The image was acquired by the Storm imaging system (Amersham). The density analyses were performed by using Image-J program, and kinetic constants were calculated by GraphPad Prism 5 software. Commercial kinase profiling assays were performed by Reaction Biology Corp., Malvern, Pa.

Cal-51 cells (tumor) = experiment: Tumor progression in athymic nude mice; format: in vivo; details: Cal-51 tumors, i.p. injection in DMSO, five-week study
Protocol: Compound 13 in DMSO was administered to the test mice by i.p. injection. Cal-51 cells were injected to induce tumor growth. At the end of the five-week study, the mice were sacrificed, and the tumors were measured, dissected and weighed (FIGS. 6 and 7).

[2] = target: Mps1 (autophosphorylation) (Homo sapiens, UniProt P33981); experiment: biochemical
Chain of Mps1 (autophosphorylation) (P33981 whole entry): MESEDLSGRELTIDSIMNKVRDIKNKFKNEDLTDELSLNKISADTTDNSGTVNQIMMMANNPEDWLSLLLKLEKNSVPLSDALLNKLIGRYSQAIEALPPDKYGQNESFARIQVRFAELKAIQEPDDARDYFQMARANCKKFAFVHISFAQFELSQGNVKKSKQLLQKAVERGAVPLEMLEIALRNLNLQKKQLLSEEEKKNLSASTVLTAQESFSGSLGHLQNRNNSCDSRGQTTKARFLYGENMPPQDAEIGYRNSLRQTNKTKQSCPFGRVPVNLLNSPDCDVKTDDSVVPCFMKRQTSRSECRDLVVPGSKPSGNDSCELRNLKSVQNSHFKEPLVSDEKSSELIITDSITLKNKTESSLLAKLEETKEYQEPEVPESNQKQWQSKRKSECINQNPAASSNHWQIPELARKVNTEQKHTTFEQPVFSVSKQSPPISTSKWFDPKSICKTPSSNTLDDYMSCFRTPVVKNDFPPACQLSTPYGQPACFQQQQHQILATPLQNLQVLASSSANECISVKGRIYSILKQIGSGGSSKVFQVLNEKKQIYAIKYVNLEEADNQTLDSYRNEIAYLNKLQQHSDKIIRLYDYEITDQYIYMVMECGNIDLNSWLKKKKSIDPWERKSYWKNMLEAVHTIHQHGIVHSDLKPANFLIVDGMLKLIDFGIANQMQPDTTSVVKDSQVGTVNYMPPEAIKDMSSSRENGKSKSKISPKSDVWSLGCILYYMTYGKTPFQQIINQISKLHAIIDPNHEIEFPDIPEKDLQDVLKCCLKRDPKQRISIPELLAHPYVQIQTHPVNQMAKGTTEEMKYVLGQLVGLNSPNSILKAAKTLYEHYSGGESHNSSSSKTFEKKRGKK
Protocol: as §5

| SMILES | IC50 (BT-549) [nM] | potency as compared to Mps1-IN-1 [1] | anti-proliferative effect, selectivity toward TNBC cells ([1]; preliminary studies of the initial series) | IC50 (MDA-MB-436) [nM] | IC50 (MDA-MB-453) [nM] | IC50 (MDA-MB-468) [nM] | percentage of cells with more than four centrioles (centrosome amplification) (Cal-51 cells; Cal-51) | percentage of BrdU positive cells that have just two centrioles (centriole assembly) (Cal-51 cells; Cal-51, continued investigations) | IC50 (Hs578T) [nM] | kinases inhibited in profiling of twenty common kinases (twenty common kinases) | tumor progression (Cal-51 cells (tumor)) | IC50 [2] [nM] |
| --- | --- | --- | --- | --- | --- | --- | --- | --- | --- | --- | --- | --- |
| COc1cc(N2CCC(O)CC2)ccc1Nc1nc(Nc2ccccc2S(=O)(=O)C(C)C)c2cc[nH]c2n1 [Compound 1, 1-(4-((4-((2-(isopropylsulfonyl)phenyl)amino)-7H-pyrrolo[2,3-d]pyrimidin-2-yl)amino)-3-methoxyphenyl)piperidin-4-ol] | 810 | significantly more potent | moderate selectivity | 900 | 820 | 190 | dose-dependent reduction | dose-dependent increase | > 10000 | – | – | – |
| COc1cc(N2CCOCC2)ccc1Nc1nc(NC2CCCCC2)c2cc[nH]c2n1 [Compound 13, N4-cyclohexyl-N2-(2-methoxy-4-morpholinophenyl)-7H-pyrrolo[2,3-d]pyrimidine-2,4-diamine] | – | significantly more potent | – | – | – | 570 | – | – | > 10000 | only two kinases | slowed the tumor progression | 312 |
